Where a SMILES comes first, the peptide text is derived from it. Bridges are numbered along the chain shown (N, C = ends). Roman numbers before positions name the chains, in order. [ ]: non-standard residue; d: D form. dHyp = O=C(O)[C@H]1C[C@H](O)CN1; Tle = CC(C)(C)[C@H](N)C(=O)O; dDab = NCC[C@@H](N)C(=O)O; Nle = CCCC[C@H](N)C(=O)O; Orn = NCCC[C@H](N)C(=O)O; Dab = NCC[C@H](N)C(=O)O
Legend:
Type in all cases: cell-based
[1] = test system: Acinetobacter baumannii 872842; settings: 872842
[2] = test system: Acinetobacter baumannii DSM 30008; settings: DSM 30008
Summary of the method: (§1)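 CLSI broth microdilution in cation-adjusted Mueller-Hinton II broth with 0.002% Polysorbate 80, inoculum appr. 10^6 CFU/mL, peptides in serial two-fold dilutions. MIC (μg/mL) is the lowest concentration with no visible growth after 18-20 hours at 35° C.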

Escherichia coli 926415 = settings: 926415
[3] = test system: Escherichia coli ATCC 25922; settings: ATCC 25922
Summary of the method: as §1

[4] = test system: Klebsiella pneumoniae 968733; settings: 968733
[5] = test system: Klebsiella pneumoniae SSI #3010; settings: SSI #3010
Summary of the method: as §1

[6] = test system: Pseudomonas aeruginosa ATCC 27853; settings: ATCC 27853
Summary of the method: as §1

[7] = test system: human red blood cells (hRBC); assay: Hemolysis of human red blood cells; settings: red cells of human, 1 h
Summary of the method: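 Washed fresh human erythrocytes (20% v/v, ~0.9×10^9 cells/mL final) were incubated with peptides at 100 μg/mL for 1 h at 37 °C with shaking. Supernatant OD540 measured; hemolysis expressed as % of 2.5% Triton X-100 lysis, with PBS/0.001% acetic acid as 0%.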

SMILES	Acinetobacter baumannii 872842 MIC [1] [mg/L]	Acinetobacter baumannii DSM 30008 MIC [2] [mg/L]	Escherichia coli 926415 MIC (Escherichia coli 926415) [mg/L]	Escherichia coli ATCC 25922 MIC [3] [mg/L]	Klebsiella pneumoniae 968733 MIC [4] [mg/L]	Klebsiella pneumoniae SSI #3010 MIC [5] [mg/L]	Pseudomonas aeruginosa ATCC 27853 MIC [6] [mg/L]	Hemolysis at 100 μg/mL ([7]; 100 μg/mL) [%]	Hemolysis at 100 μg/mL [7]; 100 [%]
CC(C)C[C@@H]1NC(=O)[C@H](C)NC(=O)[C@H]2C[C@H](O)CN2C(=O)[C@H](CO)NC(=O)[C@H](C)NC(=O)[C@H](C(C)C)NC(=O)[C@@H](NC(=O)[C@@H](N)Cc2c[nH]c3ccccc23)CSSC[C@@H](C(=O)N[C@@H](CCN)C(=O)N[C@@H](CCN)C(=O)N[C@H](C(=O)N[C@@H](CCN)C(=O)N[C@H]2CCNC(=O)[C@H]([C@@H](C)O)NC(=O)[C@H](CCN)NC(=O)[C@H](CCN)NC(=O)[C@H](CC(C)C)NC(=O)[C@@H](CC(C)C)NC(=O)[C@H](CCN)NC2=O)[C@@H](C)O)NC(=O)[C@H](Cc2ccc(O)cc2)NC(=O)[C@H](CO)NC1=O [Ex. 129] (H-WCVAS[dHyp]ALSYC[Dab][Dab]T[Dab][Dab][Dab][dL]L[Dab][Dab]T; disulfide 2-11; lactam 16-C)	0.0625	0.125	0.25	0.0625	2	0.125	0.125	<1	–
CC(=O)N[C@@H](Cc1c[nH]c2ccccc12)C(=O)N[C@H]1CSSC[C@@H](C(=O)N[C@@H](CCCN)C(=O)N[C@@H](CCN)C(=O)N[C@@H](CCN)C(=O)N[C@H]2CCNC(=O)[C@H]([C@@H](C)O)NC(=O)[C@H](CCN)NC(=O)[C@H](CCN)NC(=O)[C@H](CC(C)C)NC(=O)[C@@H](Cc3ccccc3)NC(=O)[C@H](CCN)NC2=O)NC(=O)[C@H](Cc2ccc(O)cc2)NC(=O)[C@H](CO)NC(=O)[C@H](CC(C)C)NC(=O)[C@@H]2CCCN2C(=O)[C@H]2CCCN2C(=O)[C@H](CO)NC(=O)[C@@H](C)NC(=O)[C@H](C(C)(C)C)NC1=O [Ex. 112] (Ac-WC[Tle][dA]S[dP]PLSYC[Orn][Dab][Dab][Dab][Dab][dF]L[Dab][Dab]T; disulfide 2-11; lactam 15-C)	1	1	1	1	0.5	0.5	4	1	–
CCCC[C@@H]1NC(=O)[C@@H]2CCCN2C(=O)[C@H]2CCCN2C(=O)[C@H](CO)NC(=O)[C@H](C)NC(=O)[C@H](C(C)(C)C)NC(=O)[C@H](CCN)NC(=O)[C@H](Cc2c[nH]c3ccccc23)NC(=O)[C@H](CCN)NC(=O)[C@@H](CCC(=O)N[C@@H](CCN)C(=O)N[C@H](C(=O)N[C@@H](CCN)C(=O)N[C@H]2CCNC(=O)[C@H]([C@@H](C)O)NC(=O)[C@H](CCN)NC(=O)[C@H](CCN)NC(=O)[C@H](CC(C)C)NC(=O)[C@@H](Cc3ccccc3)NC(=O)[C@H](CCN)NC2=O)[C@@H](C)O)NC(=O)[C@H](CCCN)NC(=O)[C@H](CCN)NC(=O)[C@H](Cc2ccc(O)cc2)NC(=O)[C@H](CO)NC1=O [Ex. 9] (I: cyclo([Nle]SY[Dab][Orn][dE][Dab]W[Dab][Tle]AS[dP]P) / II: [Dab]T[Dab][Dab][Dab][dF]L[Dab][Dab]T; amide I:6-II:N; lactam II:4-II:C)	2	0.25	1	0.25	2	0.5	0.5	–	1

Second part, led by results:

Acinetobacter baumannii 872842 MIC [1] [mg/L]	Acinetobacter baumannii DSM 30008 MIC [2] [mg/L]	Escherichia coli 926415 MIC (Escherichia coli 926415) [mg/L]	Escherichia coli ATCC 25922 MIC [3] [mg/L]	Klebsiella pneumoniae 968733 MIC [4] [mg/L]	Klebsiella pneumoniae SSI #3010 MIC [5] [mg/L]	Pseudomonas aeruginosa ATCC 27853 MIC [6] [mg/L]	SMILES	Hemolysis at 100 μg/mL ([7]; 100 μg/mL) [%]	Hemolysis at 100 μg/mL [7]; 100 [%]
0.5	0.25	0.125	0.125	0.5	0.25	1	CCCC[C@@H]1NC(=O)[C@@H]2CCCN2C(=O)[C@H]2CCCN2C(=O)[C@H](CO)NC(=O)[C@H](C)NC(=O)[C@H](C(C)(C)C)NC(=O)[C@H](CCN)NC(=O)[C@H](Cc2c[nH]c3ccccc23)NC(=O)[C@@H](NC(C)=O)CCNC(=O)CC[C@@H](C(=O)N[C@H](CCN)C(=O)N[C@H]2CCNC(=O)[C@H]([C@@H](C)O)NC(=O)[C@H](CCN)NC(=O)[C@H](CCN)NC(=O)[C@H](CC(C)C)NC(=O)[C@@H](CC(C)C)NC(=O)[C@H](CCN)NC2=O)NC(=O)[C@H](CCCN)NC(=O)[C@H](CCN)NC(=O)[C@H](Cc2ccc(O)cc2)NC(=O)[C@H](CO)NC1=O [Ex. 196] (Ac-[Dab]W[Dab][Tle]AS[dP]P[Nle]SY[Dab][Orn]E[dDab][Dab][Dab][dL]L[Dab][Dab]T; lactam 1-14, 16-C)	–	<1
1	1	0.5	1	1	1	1	CCCC[C@@H]1NC(=O)[C@@H]2CCCN2C(=O)[C@H]2CCCN2C(=O)[C@H](CO)NC(=O)[C@H](C)NC(=O)[C@H](C(C)(C)C)NC(=O)[C@H](CCN)NC(=O)[C@H](Cc2c[nH]c3ccccc23)NC(=O)[C@H](CCN)NC(=O)[C@@H](CCN)NC(=O)[C@H](CCC(=O)N[C@H](CCN)C(=O)N[C@H]2CCNC(=O)[C@H]([C@@H](C)O)NC(=O)[C@H](CCN)NC(=O)[C@H](CCN)NC(=O)[C@H](CC(C)C)NC(=O)[C@@H](CC(C)C)NC(=O)[C@H](CCN)NC2=O)NC(=O)[C@H](CCN)NC(=O)[C@H](Cc2ccc(O)cc2)NC(=O)[C@H](CO)NC1=O [Ex. 72] (I: cyclo(W[Dab][Tle]AS[dP]P[Nle]SY[Dab]E[dDab][Dab]) / II: [dDab][Dab][Dab][dL]L[Dab][Dab]T; amide I:12-II:N; lactam II:2-II:C)	–	<1
0.5	0.25	0.25	0.125	2	0.125	0.5	CCCC[C@@H]1NC(=O)[C@@H]2CCCN2C(=O)[C@H]2CCCN2C(=O)[C@H](CO)NC(=O)[C@H](C)NC(=O)[C@H](C(C)(C)C)NC(=O)[C@H](CCN)NC(=O)[C@H](Cc2c[nH]c3ccccc23)NC(=O)[C@@H](NC(C)=O)CCC(=O)NCC[C@@H](C(=O)N[C@@H](CCN)C(=O)N[C@H]2CCNC(=O)[C@H]([C@@H](C)O)NC(=O)[C@H](CCN)NC(=O)[C@H](CCN)NC(=O)[C@H](CC(C)C)NC(=O)[C@@H](Cc3ccccc3)NC(=O)[C@H](CCN)NC2=O)NC(=O)[C@H](CCCN)NC(=O)[C@H](CCN)NC(=O)[C@H](Cc2ccc(O)cc2)NC(=O)[C@H](CO)NC1=O [Ex. 58] (Ac-EW[Dab][Tle]AS[dP]P[Nle]SY[Dab][Orn][Dab][Dab][Dab][Dab][dF]L[Dab][Dab]T; lactam 1-14, 16-C)	–	<1
